Laboratory results as given in patent publication EP4458977A1, “SELF-ASSEMBLING PEPTIDE AMPHIPHILES AS RETROVIRAL TRANSDUCTION ENHANCERS” (Max-Planck-Gesellschaft zur Förderung der Wissenschaften …, priority 2023, dated 2024).
Several values for one entry are separate records, joined by “and”; a condition that tells them apart may be missing. Equal values may be shown once. Entries after “also recorded” stand apart in the source; their conditions may differ. Where a SMILES comes first, the peptide text is derived from it. The star is where a group is joined. Palmitoyl = CCCCCCCCCCCCCCCC(=O)*

Experiments:
HeLa cells [1] = test: Confocal laser scanning microscopy and degradation study with PA1-3 and HeLa cells; type: cell-based; conditions: for degraded over the course of 3 days in the presence of HeLa cells: 4 µg peptide added to 40,000 cells; for association with cellular membranes: HeLa cells, 30 min
Protocol: 4 µL of the preformed peptide fibrils (1 mg mL^-1) were diluted with 4 µL Proteostat (Enzo Life Science, 1 µL stock in 999 µL PBS) and incubated for 10 min and further diluted with medium to receive a final peptide concentration of 20 µg mL^-1. The nucleus of the HeLa cells was stained with Hoechst 33342 (NucBlue™, Thermo Fisher Scientific). The peptide solution was transferred to the HeLa cells and incubated for 30 min at 37°C before washing three times with PBS. […] For the evaluation of aggregate degradation, the samples were further incubated at 37°C for 3 d and analyzed without any additional washing step. […] The number of aggregates were determined by accumulating the number of aggregates larger than 10 µm^2 in an area of 581.25 × 581.25 µm, repeated in three technical triplicates.

CD4+ T cells [2] = conditions: 3 days; 1 µg peptide added to 250,000 cells
Protocol: Confocal laser scanning microscopy and degradation study with PA1-3 and CD4+ T cells: The degradation of the peptide assemblies on CD4+ T cells was determined by analyzing fluorescence microscopy images. To this end, 4 µL of the preassembled peptide fibrils EF-C, PA1 and PA2 (1 mg mL^-1, 1 d in PBS) were mixed with 4 µL of Proteostat (Enzo Life Science, 1 µL stock in 99 µL PBS) and incubated for 15 min. 2 µL of the stained fibrils were added to 198 µL preactivated and nucleus stained (Hoechst 33342) CD4+ T cells (200 µL, 0.25×10^6 resulting in a final 5 µg mL^-1concentration of the peptide. After incubation for 30 min at 37°C the cells were washed with 3x with PBS and incubated in medium (supplemented RPMI containing IL-15 and 7). Microscopy was conducted on a Zeiss LSM 710 confocal microscope with 20x and 63x objective and laser excitation wavelengths of 405 nm (Hoechst) and 561 nm (Proteostat). The measurements were performed after 30 min and 3 d of incubation at 37°C without any washing step in between. […]
The evaluation of aggregate size and number was conducted by analyzing Proteostat-stained aggregates via the 3D objects counter function of ImageJ 1.53f51 for 6 individual measurements (area 581.25 µm × 581.25 µm) of three individually repeated experiments. […] The degradation of the peptide assemblies on CD4+ T cells was determined by analyzing fluorescence microscopy images. […]

[3] = Fluorescence microscopy of ThT-stained fibrils (µm-sized aggregates); type: physicochemical
Summary of the method: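 Fibrils (1 mg mL^-1) mixed 1:9 with 50 µM ThT, giving 0.1 mg mL^-1 stained fibrils on glass. Imaged under 10x air objective with excitation 480/40 nm and emission 527/30 nm. Fibrils called distinct when no visible structures appeared in fluorescence or brightfield.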

HeLa cells [4] = test: Confocal laser scanning microscopy and degradation study with PA library and HeLa cells; type: cell-based
Summary of the method: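 HeLa cells (20,000/well) got Proteostat-stained PAs (2 µg peptide per 20.000 cells) with Hoechst nuclear stain, 30 min at 37°C, PBS-washed, then held 3 d at 37°C unwashed. Confocal imaging at d0 and d3 counted aggregates >10 µm^2 in 1008 × 1008 µm, three technical replicates. Degradation taken as d3/d0 aggregate number.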

[5] = Zeta-potential measurement (dynamic light scattering); type: physicochemical
[6] = TEM of peptide assemblies (fibril formation / assembly); type: physicochemical; parameters: key to Fibril Formation: "1" means fibril formation observed; "0" means no fibrils observed; conditions: for Fibril Formation: via TEM
Summary of the method: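 Peptides predissolved in DMSO at 10 mg/mL (stock), diluted in PBS to 650 µM or 1 mg/mL final and incubated 1 d at rt (20–25 °C) to form fibrils. Other concentrations obtained by diluting preformed fibrils; assemblies imaged by TEM.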

Jurkat cells = test: γ-retroviral transduction assay (GALV-RV, GFP+ cells); type: cell-based
Protocol: (§1) γ-Retroviral transduction Assay with Jurkat and CD4+ T cells: The effect of peptide fibrils on retroviral transduction of Jurkat cells was analyzed 3 days post transduction by determining the percentage of GFP + cells by flow cytometry. The assay was conducted according prior art procedures.

CD4+ T cells [7] = test: as above; type: cell-based, Human
Protocol: as §1
Human CD4+ T cells were isolated from a Buffy coat using RosetteSep™ Human CD4+ Enrichment Cocktail ([…] Technologies) according to manufacturer's protocol. Isolated T cells were activated using Dynabeads™ Human T-Activator CD3/CD28 (GibcoTM) according to manufacturer's protocol in presence of 10 ng mL^-1 IL-2 (Miltenyi Biotec) for three days. After 3 days the magnetic Dynabeads were removed using a magnet and T cells were cultured in presence of 9 ng mL^-1 IL-7 (Miltenyi Biotec) and 10 ng mL^-1 IL-15 (Miltenyi Biotec). After 1 day 5×10^5 T cells were transduced with GALV-γ-RV in absence and presence of PA1, PA2, EF-C (0.26, 1.3 and 6.5 µM) and Vectofusin®-1 (10 µg mL^-1; Miltenyi Biotec), or RetroNectin (20 µg mL^-1; Takara Bio). […] After 3 days GFP+ T cells were analyzed by flow cytometry. Viability was determined using LIVE/DEAD™ Fixable Aqua Dead Cell Stain Kit (ThermoFisher Scientific) according to manufacturer's protocol.

[8] = Thioflavin T (ThT) fluorescence assay; type: physicochemical; parameters: key to ThT: + = ThT active; - = no ThT fluorescence observed; conditions: for ThT: ThT fluorescence, 1 mg/mL, PBS
Summary of the method: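 ThT fluorescence of peptide fibrils judged against a PBS/10% DMSO control; fibrils scored ThT-active when intensity was at least twice that control.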

[9] = ATR-FT-IR determination of β-sheet content; type: physicochemical; conditions: peak integration of parallel β-sheet at 1630 cm-1, 2nd derivative of ATR-IR spectra
Summary of the method: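 Lyophilized fibril samples measured by diamond ATR-FT-IR, 2 cm^-1 resolution, 64 scans averaged. β-sheet content taken from the second-derivative spectrum as the 1630 cm-1 peak integral relative to the 1650-1700 cm-1 integral.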

[10] = Zeta-potential measurement (dynamic light scattering); type: physicochemical; conditions: for Zeta Potential / mV: 1 mg/mL, PBS
Summary of the method: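 Peptide at 1 mg mL-1 stock was diluted tenfold in 1 mM KCl and measured by dynamic light scattering in triplicate. The derived count rate served as a light-scattering and turbidity indicator of microscopic aggregation.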
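Wherever Infectivity enhancing N fold at 1.3 µM is given: TZM-bl reporter cells exposed to HIV-1 with peptide fibrils, infection read out as β-galactosidase luminescence, compared with virus alone.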
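Wherever enhancement of HIV-1 infection / transduction (in words) is given: TZM-bl reporter cells exposed to HIV-1 with peptide fibrils, infection read out as β-galactosidase luminescence, compared with virus alone.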

Protocol for HIV-1: HIV-1 Infection Assay with TZM-bl cells: The effect of peptide fibrils on HIV-1 infection was studied via a luminescence assay for β-galactosidase, which was reported by TZM-bl cells upon infection. The HIV-1 infection assay was conducted in three technical replicates and repeated in three independent experiments unless stated otherwise.

| SMILES | degraded over the course of 3 days in the presence of HeLa cells (HeLa cells [1]) [%] | association with cellular membranes (HeLa cells [1]) | formation of µm-sized aggregates in aqueous medium / PBS (in words) [3] | transduction enhancement (in words) (Jurkat cells) | transduction enhancement (in words) (CD4+ T cells [7]) | ThT [8] | β-sheet content / % [9] [%] | zeta-potential (in words) [10] | Zeta Potential / mV [10] | also measured |
| --- | --- | --- | --- | --- | --- | --- | --- | --- | --- | --- |
| CCCCCCCCCCCCCCCC(=O)N[C@H](C(=O)N[C@H](C(=O)N[C@H](C(=O)N[C@@H](C)C(=O)N[C@@H](C)C(=O)N[C@@H](C)C(=O)N[C@@H](CCCCN)C(=O)N[C@@H](CCCCN)C(=O)N[C@@H](CCCCN)C(N)=O)C(C)C)C(C)C)C(C)C [PA1] (Palmitoyl-VVVAAAKKK-NH2) | 94 | association with cellular membranes | formation of µm-sized aggregates; also recorded: microscopic clusters of fibrils were formed | strong transduction enhancement similar to EF-C | activity in the range of commercially available gold-standard enhancers RetroNectin and Vectofusin-1 | + | 57 | positive zeta-potential | +22.2 ± 0.7 mV | degradation of aggregates by CD4+ T cells (in words) (CD4+ T cells [2]): almost all small aggregates of PA1 (SEQ ID NO. 4) are degraded by CD4+ T cells; Degradability / % (rel. to initial particles > 10 µm^2) (HeLa cells [4]; HeLa cells, 3 d relative to 30 min): 94%; aggregate number decreases / degraded in presence of HeLa cells within 3 days (HeLa cells [4]; d3 relative to d0): 87% and 94%; Infectivity enhancing N fold at 1.3 µM (HIV-1; relative to virus only): 10±3 N fold; Zeta-Potential / mV [5]: 22.2 mV; Assembly without hydrophob residue ([6]; corresponding peptide without hydrophobic moiety): No; Assembly ([6]; peptide amphiphile): Yes; Fibril Formation ([6]; hydrophobic moiety exchange): 1; Fibril Formation ([6]; linkage chemistry exchange): 1; N-fold ThT-fluorescence ([8]; relative to PBS control): 278.7; Count Rate / kcps ([10]; derived count rate of scattered light during zeta-potential measurements): 3138.4 kcps |
| CCCCCCCCCCCCCCCC(=O)N[C@@H](Cc1ccccc1)C(=O)N[C@@H](CCC(N)=O)C(=O)N[C@@H](Cc1ccccc1)C(=O)N[C@@H](CCCCN)C(=O)N[C@@H](Cc1ccccc1)C(=O)N[C@@H](CCCCN)C(=O)N[C@@H](CS)C(N)=O [PA2, C16-FQFKFKC-NH2] (Palmitoyl-FQFKFKC-NH2) | 53 | association with cellular membranes | formation of µm-sized aggregates; also recorded: microscopic clusters of fibrils were formed | strong transduction enhancement similar to EF-C | activity in the range of commercially available gold-standard enhancers RetroNectin and Vectofusin-1 | + | 59 | positive zeta-potential | +19.2 ± 3.4 mV |  |
| CCCCCCCCCCCCCCCC(=O)N[C@H](C(=O)N[C@H](C(=O)N[C@H](C(=O)N[C@@H](C)C(=O)N[C@@H](C)C(=O)N[C@@H](C)C(=O)N[C@@H](CCC(=O)O)C(=O)N[C@@H](CCC(=O)O)C(=O)N[C@@H](CCC(=O)O)C(N)=O)C(C)C)C(C)C)C(C)C [PA3] (Palmitoyl-VVVAAAEEE-NH2) |  | did not associate with cells | does not form µm-sized aggregates in PBS; also recorded: did not bundle or adopt µm-sized aggregates in PBS |  |  | + | 61 | negative zeta-potential | -29.8 ± 2.7 mV | enhancement of HIV-1 infection / transduction (in words) (HIV-1; 6.5 µM, 1.3 µM, 0.26 µM): no transduction enhancement; TEM morphology (in words) ([6]; 1 mg/mL in PBS): distinct fibrils |
